Measured values as given in publication PMC7823652 (Viruses, 2020).
Read-outs that look alike come from different tables or passages of the source.

Legend:
ZIKV [1] = test: Image-based phenotypic antiviral screen in ZIKV-infected U87 cells; type: cell-based, Zika virus (strain H/PF/2013); conditions: for inhibition at 10 µM: Zika virus, U-87 MG
[2] = Screen cytotoxicity by nuclei count in ZIKV-infected U87 cells; type: cell-based; conditions: human, ZIKV-infected U87 cells
HAZV = test: microbe, parasite or virus in culture; type: cell-based, Hazara virus (isolate JC280); conditions: for inhibition at 10 µM: Hazara virus, SW13, 24 h
ZIKV [3] = test: Antiviral dose-response in ZIKV-infected U87 cells (infected cells, viral titer); type: cell-based, Zika virus (strain H/PF/2013); conditions: Zika virus, U-87 MG; for IC50: ZIKV; for EC50: U87, ZIKV MOI 1, 48 h
ZIKV [4] = test: Antiviral dose-response in ZIKV-infected Vero cells; type: cell-based, Zika virus (strain H/PF/2013); conditions: Zika virus
U87 cells [5] = test: Cell viability by nuclei count in ZIKV-infected U87 cells; type: cell-based, Human
Vero cells = test: Cell viability by nuclei count in ZIKV-infected Vero cells; type: cell-based, African Green Monkey
[6] = Cell viability assay (Resazurin), uninfected U87 cells; type: cell-based, Human; conditions: human, read-out: Viability CC50 [µM] (95%-CI)
U87 cells [7] = test: as above; type: cell-based, Human; conditions: Homo sapiens, U-87 MG; U87, Resazurin, all measured time points (24, 48 or 72 h); read-out: IC50 (toxicity profile, cellular viability)
in vitro = type: cell-based; conditions: African green monkey
ZIKV [8] = test: ZIKV-induced cytopathic effect in U87 cells (immunofluorescence imaging); type: cell-based, Zika virus (strain H/PF/2013); conditions: U87, ZIKV MOI 1, 10 μM TH6744, 24, 48 or 72 h
ZIKV [9] = test: End-point dilution assay by CPE, ZIKV-infected Vero cells; type: cell-based, Zika virus (strain H/PF/2013); conditions: ZIKV MOI 0.1, increasing doses, 24 h
ZIKV [10] = test: ZIKV infection (NS1 intensity) and viral titer in human cerebral organoids; type: cell-based, Zika virus (strain H/PF/2013); conditions: ZIKV 2 × 10^4 particles/organoid, 5 μM
ZIKV [11] = test: Time-of-addition assay in ZIKV-infected U87 cells; type: cell-based, Zika virus (strain H/PF/2013)
ZIKV [12] = test: Viral budding assay in ZIKV-infected U87 cells; type: cell-based, Zika virus (strain H/PF/2013)
human brain organoids = test: Viability and structure of ZIKV-infected human cerebral organoids; conditions: ZIKV 2 × 10^4 particles/organoid, 5 μM, 7 dpi and 10 dpi
ZIKV [13] = test: Time course of ZIKV replication in U87 cells (vRNA, infected cells, titer)
[14] = U87, ZIKV MOI 10, 22 h then 5 μM for 2 h
[15] = U87, ZIKV MOI 10, 22 h then 10 μM for 2 h

With `CCOC(=O)c1cnn(-c2cccc3c2[nH]c(=O)n3C2CCN(C(=O)Nc3ccc(I)cc3)CC2)c1` [TH6744] the “Viral Titer (ZIKV) (%)” value (ZIKV [1]; U87, ZIKV MOI 10, compound 10 µM, 48 h, relative to DMSO) was 5%, the “Infected Cells (U87, ZIKV) (%)” value (ZIKV [1]; ZIKV MOI 10, compound 10 µM, 48 h, relative to DMSO) was 88% and the inhibition at 10 µM (ZIKV [1]; U87, ZIKV MOI 10, compound 10 µM, 48 h, relative to DMSO, read-out: Inhibition of ZIKV titer (%)) was 95%. For the same compound, the inhibition at 10 µM (ZIKV [1]; U87, ZIKV MOI 10, compound 10 µM, 48 h, relative to DMSO, read-out: Inhibition of primary ZIKV infection (%)) was 12%, the “Infected Cells (U87, ZIKV)” value (ZIKV [1]; screen, U87 cells, ZIKV) was 88% and the “Viral Titer (ZIKV)” value (ZIKV [1]; screen, U87 cells, ZIKV) was 5%. It also gave a viability at 48 h, 10 µM ([2]; ZIKV MOI 10, compound 10 µM, 48 h, nuclei count relative to DMSO) of 105%, a viability at 10 µM ([2]; screen) of 105% and an inhibition at 10 µM (HAZV; read-out: Inhibition of HAZV titer (%)) of 90%. The inhibition at 10 µM (HAZV; read-out: Inhibition of primary HAZV infection (%)) was 85%, the “Infected Cells (SW13, HAZV)” value (HAZV; screen, SW13 cells, HAZV) was 15% and the “Viral Titer (HAZV)” value (HAZV; screen, SW13 cells, HAZV) was 10%. For the same compound, the IC50 (ZIKV [3]; 24 h, U87, MOI 1, 24 h, read-out: Antiviral on primary infection IC50) was greater than 50 µM, the IC50 (ZIKV [3]; 24 h, U87, MOI 1, 24 h, read-out: Antiviral on titer (µM) IC50) was greater than 50 µM and the IC50 (ZIKV [3]; 24 h, U87, MOI 10, 24 h, read-out: Antiviral on primary infection IC50) was greater than 50 µM. It also gave an IC50 (ZIKV [3]; 24 h, U87, MOI 10, 24 h, read-out: Antiviral on titer (µM) IC50) of 10.3 µM, an IC50 (ZIKV [3]; 48 h, U87, MOI 1, 48 h, read-out: Antiviral on primary infection IC50) of 7.5 µM and an IC50 (ZIKV [3]; 48 h, U87, MOI 1, 48 h, read-out: Antiviral on titer (µM) IC50) of 4.4 µM. For the same compound, the IC50 (ZIKV [3]; 48 h, U87, MOI 10, 48 h, read-out: Antiviral on primary infection IC50) was 12.2 µM, the IC50 (ZIKV [3]; 48 h, U87, MOI 10, 48 h, read-out: Antiviral on titer (µM) IC50) was 9.2 µM and the EC50 (ZIKV [3]; ZIKV NS1 staining, read-out: EC50 [μM] Infected cells) was 7.5 µM. The EC50 (ZIKV [3]; end-point dilution assay, read-out: EC50 [μM] Viral titer) was 4.4 µM, the IC50 (ZIKV [4]; 24 h, MOI 1, 24 h, read-out: Antiviral on primary infection IC50) was 48.4 µM and the IC50 (ZIKV [4]; 24 h, MOI 1, 24 h, read-out: Antiviral on titer (µM) IC50) was 3.9 µM. The IC50 (ZIKV [4]; 24 h, MOI 10, 24 h, read-out: Antiviral on primary infection IC50) was greater than 50 µM, the IC50 (ZIKV [4]; 24 h, MOI 10, 24 h, read-out: Antiviral on titer (µM) IC50) was 5.5 µM and the IC50 (ZIKV [4]; 48 h, MOI 1, 48 h, read-out: Antiviral on primary infection IC50) was 2.9 µM. The IC50 (ZIKV [4]; 48 h, MOI 1, 48 h, read-out: Antiviral on titer (µM) IC50) was 3.6 µM, the IC50 (ZIKV [4]; 48 h, MOI 10, 48 h, read-out: Antiviral on primary infection IC50) was 5.8 µM and the IC50 (ZIKV [4]; 48 h, MOI 10, 48 h, read-out: Antiviral on titer (µM) IC50) was 7.2 µM. The EC50 (U87 cells [5]; Homo sapiens, U-87 MG, U87, ZIKV MOI 1, 48 h, nuclei count, read-out: EC50 [μM] Living cells) was greater than 50 µM, the EC50 (U87 cells [5]; Homo sapiens, U-87 MG, ZIKV, U87, MOI 10, 24 h, read-out: Viability (nuclei count) EC50) was greater than 50 µM and the EC50 (U87 cells [5]; Homo sapiens, U-87 MG, ZIKV, U87, MOI 10, 48 h, read-out: Viability (nuclei count) EC50) was greater than 50 µM. The “viability (nuclei count)” value (U87 cells [5]; U87, ZIKV MOI 1, 24 hpi) was “without affecting the viability”, the EC50 (U87 cells [5]; ZIKV, U87, MOI 1, 24 h, read-out: Viability (nuclei count) EC50) was greater than 50 µM and the EC50 (U87 cells [5]; ZIKV, U87, MOI 1, 48 h, read-out: Viability (nuclei count) EC50) was greater than 50 µM. The EC50 (Vero cells; Chlorocebus sabaeus, MOI 10, 24 h) was greater than 50 µM, the EC50 (Vero cells; Chlorocebus sabaeus, MOI 10, 48 h) was greater than 50 µM and the EC50 (Vero cells; MOI 1, 24 h) was greater than 50 µM. For the same compound, the EC50 (Vero cells; MOI 1, 48 h) was greater than 50 µM, the CC50 at 24 h ([6]; uninfected U87, 24 h) was greater than 50 µM and the CC50 at 48 h ([6]; uninfected U87, 48 h) was greater than 50 µM. It also gave a CC50 at 72 h ([6]; uninfected U87, 72 h) greater than 50 µM, an IC50 (U87 cells [7]) greater than 50 µM and a CC50 at 24 h (in vitro) greater than 50 µM. The CC50 at 48 h (in vitro) was greater than 50 µM, the CC50 at 72 h (in vitro) was greater than 50 µM and the “effect on ZIKV-induced CPE in U87 cells” value (ZIKV [8]) was “reversed ZIKV-induced CPE”. For the same compound, the “viral titer measured by CPEs” value (ZIKV [9]) was “reduced viral titer in a dose-dependent manner”, the “ZIKV NS1 intensity in sectioned organoids (primary virus infection)” value (ZIKV [10]; 7 dpi) was “marked reduction” and the “reduction of ZIKV progeny particles produced by the organoids” value (ZIKV [10]; all timepoints, relative to DMSO) was 70–80%. The “reduction on viral titer, entry” value (ZIKV [11]; U87, ZIKV MOI 10, 10 μM TH6744, 1 h pre-treatment and during inoculation, titer at 24 hpi) was 50%, the “viral titer, post-inoculation” value (ZIKV [11]; U87, ZIKV MOI 10, 10 μM TH6744 directly after inoculation for 24 h) was “pronounced reduction of viral titer” and the “titer reduction, virus budding” value (ZIKV [11]; U87, ZIKV MOI 10, 10 μM TH6744 from 22 h after inoculation for 2 h) was 50%. For the same compound, the “infectivity of pre-budding and post-budding particles” value (ZIKV [12]; U87, ZIKV MOI 10, 2 h TH6744 treatment (5 or 10 μM), dose-dependent) was “reduced to a similar extent”, the “Fraction of infectious ZIKV particles: Extracellular” value (ZIKV [12]; [14]) was 94.30% and the “Fraction of infectious ZIKV particles: Intracellular” value (ZIKV [12]; [14]) was 5.70%. The “Fraction of infectious ZIKV particles: Extracellular” value (ZIKV [12]; [15]) was 93.44%, the “Fraction of infectious ZIKV particles: Intracellular” value (ZIKV [12]; [15]) was 6.56% and the “phenotypic rescue (retained structure of organoids)” value (human brain organoids) was “phenotypic rescue”. For the same compound, the ZIKV-infected cells (ZIKV [13]; U87, ZIKV MOI 1, 24 hpi) was “no reduction”, the “reduction of extracellular vRNA levels” value (ZIKV [13]; U87, ZIKV MOI 1, 24 hpi) was 50% and the “reduction of viral titers” value (ZIKV [13]; U87, ZIKV MOI 1, 24 hpi) was 75%. The “intracellular ZIKV vRNA” value (ZIKV [13]; U87, ZIKV MOI 1, 24 hpi, qPCR) was “no reduction”, the “intracellular ZIKV vRNA levels” value (ZIKV [13]; U87, ZIKV MOI 1, 48 hpi) was “remained unchanged” and the “reduction of number of ZIKV-infected cells” value (ZIKV [13]; U87, ZIKV MOI 1, 48 hpi) was 65%. For the same compound, the reduction of titer (ZIKV [13]; U87, ZIKV MOI 1, 48 hpi) was 83%, the “decrease of number of ZIKV-infected cells” value (ZIKV [13]; U87, ZIKV MOI 1, 72 h exposure) was 40% and the “decrease of viral titer” value (ZIKV [13]; U87, ZIKV MOI 1, 72 h exposure) was 63%.
